Laboratory results published in PubChem BioAssay AID248 (DTP/NCI, 2004).
“And” between values parts separate entries of the source, which are not always exact repeats. Equal entries are not always repeated. Toxic doses and inconclusive results are not listed. No stated cut-off is given here; in the data, active means T/C of 150% or more; inactive means T/C below 125%.

Test system: L1210 leukemia ip in BDF1 mice, survival T/C
Test: NCI In Vivo Anticancer Drug Screen. Data for tumor model L1210 Leukemia (intraperitoneal) in B6D2F1 (BDF1) mice
Conditions: endpoint: mean survival time, higher = longer survival
How it was run: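 Read-out is survival time, reported as the treated-group measurement over the vehicle-control measurement.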

[1] = dose: 100.0 mg/kg/injection, schedule: Q01DX009 (ip), vehicle: saline with Tween-80
[2] = dose: 50.0 mg/kg/injection, schedule: Q01DX001 (ip), vehicle: Klucel (hydroxypropylcellulose) (HPC)
[3] = dose: 100.0 mg/kg/injection, schedule: Q01DX001 (ip), vehicle: Klucel (hydroxypropylcellulose) (HPC)
[4] = dose: 200.0 mg/kg/injection, schedule: Q01DX001 (ip), vehicle: Klucel (hydroxypropylcellulose) (HPC)

Measured: T/C

CCN(CC)CC(O)CNc1ccnc2cc(Cl)ccc12 (configuration not stated)
inactive: dose: 25.0 mg/kg/injection, schedule: Q01DX009 (ip), vehicle: saline with Tween-80 97 % of control | dose: 50.0 mg/kg/injection, schedule: Q01DX009 (ip), vehicle: saline with Tween-80 86 % of control | [1] 97 % of control

CC(NC(=O)CNC(=O)c1cnc2ccccc2n1)C(=O)O (configuration not stated)
inactive: dose: 100.0 mg/kg/injection, schedule: Q01DX001 (ip), vehicle: saline 100 % of control | dose: 200.0 mg/kg/injection, schedule: Q01DX001 (ip), vehicle: saline 101 % of control | dose: 400.0 mg/kg/injection, schedule: Q01DX001 (ip), vehicle: saline 94 % of control

C/C=N\N=C(N)N
inactive: dose: 15.0 mg/kg/injection, schedule: Q01DX Z (ip), vehicle: saline 91 % of control | dose: 30.0 mg/kg/injection, schedule: Q01DX Z (ip), vehicle: saline 97 % of control | dose: 60.0 mg/kg/injection, schedule: Q01DX Z (ip), vehicle: saline 100 % of control | dose: 120.0 mg/kg/injection, schedule: Q01DX Z (ip), vehicle: saline 94 % of control | dose: 120.0 mg/kg/injection, schedule: Q01DX Z (oral), vehicle: other 95 % of control | dose: 240.0 mg/kg/injection, schedule: Q01DX Z (oral), vehicle: other 97 % of control | dose: 480.0 mg/kg/injection, schedule: Q01DX Z (oral), vehicle: other 102 % of control | dose: 960.0 mg/kg/injection, schedule: Q01DX Z (oral), vehicle: other 122 % of control

Cc1ccc(Nc2ccc(C)cc2[N+](=O)[O-])cc1
inactive: dose: 100.0 mg/kg/injection, schedule: Q01DX001 (ip), vehicle: carboxymethylcellulose (CMC) 105 % of control | dose: 200.0 mg/kg/injection, schedule: Q01DX001 (ip), vehicle: carboxymethylcellulose (CMC) 102 % of control | dose: 400.0 mg/kg/injection, schedule: Q01DX001 (ip), vehicle: carboxymethylcellulose (CMC) 94 % of control

O=C(Nc1cc(Cl)c(Cl)cc1Cl)Nc1cc(Cl)ccc1Oc1ccc(Cl)cc1S(=O)(=O)O
inactive: dose: 50.0 mg/kg/injection, schedule: Q04DX003 (ip), vehicle: alcohol 97 % of control | dose: 100.0 mg/kg/injection, schedule: Q04DX003 (ip), vehicle: alcohol 103 % of control | dose: 200.0 mg/kg/injection, schedule: Q04DX003 (ip), vehicle: alcohol 103 % of control

COc1ccc(CN2CC(C)N(N)C(C)C2)cc1 (configuration not stated)
inactive: dose: 100.0 mg/kg/injection, schedule: Q01DX005 (ip), vehicle: saline 98 % of control

CS(=O)(=O)c1nc2[nH]c(=O)[nH]c(=O)c2cc1C#N
inactive: dose: 25.0 mg/kg/injection, schedule: Q01DX001 (ip), vehicle: Klucel (hydroxypropylcellulose) (HPC) 93 % of control | [2] 98 % of control | [3] 97 % of control

CC(C)=CN1CC2CCCC(CC2)C1
inactive: dose: 100.0 mg/kg/injection, schedule: Q04DX003 (ip), vehicle: Klucel (hydroxypropylcellulose) (HPC) 98 % of control | dose: 200.0 mg/kg/injection, schedule: Q04DX003 (ip), vehicle: Klucel (hydroxypropylcellulose) (HPC) 101 % of control

CC(=O)OC1CC2C(C)(C)C(=O)C=CC2(C)C2CCC3(C)C(c4ccoc4)OC(=O)C4OC43C12C (configuration not stated)
inactive: dose: 100.0 mg/kg/injection, schedule: Q01DX001 (sc), vehicle: steriod suspending solution 104 % of control | dose: 200.0 mg/kg/injection, schedule: Q01DX001 (sc), vehicle: steriod suspending solution 104 % of control | dose: 400.0 mg/kg/injection, schedule: Q01DX001 (sc), vehicle: steriod suspending solution 92 % of control

N#Cc1ccccc1OCCCCCCCCCCOc1ccccc1C#N
inactive: dose: 75.0 mg/kg/injection, schedule: Q01DX009 (ip), vehicle: Klucel (hydroxypropylcellulose) (HPC) 99 % of control | dose: 150.0 mg/kg/injection, schedule: Q01DX009 (ip), vehicle: Klucel (hydroxypropylcellulose) (HPC) 92 % of control | dose: 300.0 mg/kg/injection, schedule: Q01DX009 (ip), vehicle: Klucel (hydroxypropylcellulose) (HPC) 90 % of control

O=C1OCCN1c1ccccc1
inactive: [3] 90 % of control | [1] 93 % of control | dose: 100.0 mg/kg/injection, schedule: Q04DX003 (ip), vehicle: saline with Tween-80 101 % of control | [4] 87 % of control | dose: 200.0 mg/kg/injection, schedule: Q01DX009 (ip), vehicle: saline with Tween-80 90 % of control | dose: 200.0 mg/kg/injection, schedule: Q04DX003 (ip), vehicle: saline with Tween-80 113 % of control | dose: 400.0 mg/kg/injection, schedule: Q01DX001 (ip), vehicle: Klucel (hydroxypropylcellulose) (HPC) 100 % of control | dose: 400.0 mg/kg/injection, schedule: Q01DX009 (ip), vehicle: saline with Tween-80 93 % of control | dose: 400.0 mg/kg/injection, schedule: Q04DX003 (ip), vehicle: saline with Tween-80 95 % of control

CCN(CC)C(/C=C/c1ccccc1)=N\S(=O)(=O)c1ccccc1
inactive: [2] 102 % of control | [3] 105 % of control | [4] 104 % of control

CCCCN=Cc1ccccc1O.CCCCN=Cc1ccccc1O.[Cu]
inactive: dose: 6.25 mg/kg/injection, schedule: Q01DX009 (ip), vehicle: Klucel (hydroxypropylcellulose) (HPC) 91 % of control | dose: 12.5 mg/kg/injection, schedule: Q04DX002 (ip), vehicle: Klucel (hydroxypropylcellulose) (HPC) 107 % of control | dose: 25.0 mg/kg/injection, schedule: Q01DX009 (ip), vehicle: Klucel (hydroxypropylcellulose) (HPC) 97 % of control | dose: 25.0 mg/kg/injection, schedule: Q04DX002 (ip), vehicle: Klucel (hydroxypropylcellulose) (HPC) 89 % of control | dose: 100.0 mg/kg/injection, schedule: Q04DX002 (ip), vehicle: Klucel (hydroxypropylcellulose) (HPC) 104 % of control

CCC(C#N)C(=O)NC(N)=O (configuration not stated)
inactive: dose: 100.0 mg/kg/injection, schedule: Q04DX003 (ip), vehicle: saline 97 % of control | dose: 200.0 mg/kg/injection, schedule: Q04DX003 (ip), vehicle: saline 92 % of control | dose: 400.0 mg/kg/injection, schedule: Q04DX003 (ip), vehicle: saline 91 % of control

O=C(Nc1ccc(C(=O)Nc2ccc(C3=NCCN3)cc2)cc1)Nc1ccc(C2=NCCN2)cc1
active: dose: 30.0 mg/kg/injection, schedule: Q01DX Z (ip), vehicle: carboxymethylcellulose (CMC) 166 % of control | dose: 60.0 mg/kg/injection, schedule: Q01DX Z (ip), vehicle: carboxymethylcellulose (CMC) 218 % of control | dose: 120.0 mg/kg/injection, schedule: Q01DX Z (ip), vehicle: carboxymethylcellulose (CMC) 192 % of control | dose: 240.0 mg/kg/injection, schedule: Q01DX Z (sc), vehicle: saline 154 % of control
inactive: dose: 1.88 mg/kg/injection, schedule: Q01DX Z (ip), vehicle: saline 117 % of control | dose: 3.75 mg/kg/injection, schedule: Q01DX Z (ip), vehicle: saline 117 % of control | dose: 7.5 mg/kg/injection, schedule: Q01DX Z (ip), vehicle: saline 123 % of control | dose: 30.0 mg/kg/injection, schedule: Q01DX Z (sc), vehicle: saline 97 % of control | dose: 44.0 mg/kg/injection, schedule: Q01DX007 (oral), vehicle: carboxymethylcellulose (CMC) 103 % of control | dose: 60.0 mg/kg/injection, schedule: Q01DX Z (sc), vehicle: saline 109 % of control | dose: 62.5 mg/kg/injection, schedule: Q01DX010 (oral), vehicle: saline 109 % of control | dose: 88.0 mg/kg/injection, schedule: Q01DX007 (oral), vehicle: carboxymethylcellulose (CMC) 101 % of control | dose: 120.0 mg/kg/injection, schedule: Q01DX Z (sc), vehicle: saline 120 % of control | dose: 125.0 mg/kg/injection, schedule: Q01DX010 (oral), vehicle: saline 108 % of control | dose: 175.0 mg/kg/injection, schedule: Q01DX007 (oral), vehicle: carboxymethylcellulose (CMC) 101 % of control | dose: 250.0 mg/kg/injection, schedule: Q01DX010 (oral), vehicle: saline 106 % of control | dose: 350.0 mg/kg/injection, schedule: Q01DX007 (oral), vehicle: carboxymethylcellulose (CMC) 100 % of control | dose: 500.0 mg/kg/injection, schedule: Q01DX010 (oral), vehicle: saline 106 % of control | dose: 700.0 mg/kg/injection, schedule: Q01DX007 (oral), vehicle: carboxymethylcellulose (CMC) 100 % of control

Cc1ccc(Cl)c(NC(=O)Nc2ccccc2Cl)c1
inactive: dose: 100.0 mg/kg/injection, schedule: Q01DX009 (ip), vehicle: Klucel (hydroxypropylcellulose) (HPC) 94 % of control and 90 % of control | dose: 200.0 mg/kg/injection, schedule: Q01DX009 (ip), vehicle: Klucel (hydroxypropylcellulose) (HPC) 93 % of control | dose: 400.0 mg/kg/injection, schedule: Q01DX009 (ip), vehicle: Klucel (hydroxypropylcellulose) (HPC) 88 % of control and 89 % of control

CS(=O)(=O)N(c1ccccc1)c1ccccc1[N+](=O)[O-]
inactive: dose: 100.0 mg/kg/injection, schedule: Q01DX001 (ip), vehicle: other 117 % of control | dose: 200.0 mg/kg/injection, schedule: Q01DX001 (ip), vehicle: other 96 % of control | dose: 400.0 mg/kg/injection, schedule: Q01DX001 (ip), vehicle: other 111 % of control
